Patent EP0515684A1, “INHIBITOR OF DENATURED LDL FORMATION” (Chugai Seiyaku Kabushiki Kaisha, priority 1990, dated 1991)

Test system: rabbit LDL
Assay: Amount of thiobarbituric acid reactive substances (TBARS) formed on Cu2+ oxidation of LDL
Format: biochemical
Conditions: 5 µM of Cu²⁺ added to rabbit LDL, followed by heating
Method: The biological properties of the compounds as shown hereinafter were examined by the following methods. • (1) The amount of thiobarbituric acid reactive substances: 5 µM of Cu²⁺ was added to rabbit LDL, prepared by the method reported by Havel et al., followed by heating. Then the antioxidative effect of each compound was examined by using the thiobarbituric acid reactive substances (TBARS) thus formed as the guidance. […] 0.5 ml of an n-butanol solution containing 0.2 µM of MCLA and 10 mM of linoleic acid was introduced into a vial for luminescence analysis and the luminescence due to autoxidation was measured in a thermostat at 37°C. […] To the obtained plasma, were added EDTA-NaN₃ (a 5% solution of pH 7.4) and a benzamidine solution (60 mg/ml) respectively in amounts of 0.8 ml and 0.5 ml per 100 ml of the plasma. Then rabbit or human LDL (1.019 < d < 1.063) was prepared by ultracentrifugation in accordance with the method of Havel et al.*. After performing the ultracentifugation again, the LDL was washed and concentrated. Then it was dialyzed against a 150 mM NaCl - 2 mM Na₂HPO₄ solution at 4°C and KBr was removed. The protein content was determined by Lowry method** and then the LDL was subjected to the subsequent procedure. (Measurement of electrophoretic mobility in agarose gel) 10 µM of Cu²⁺ and a specimen were added to an LDL-containing solution (3.00 µg protein/ml). After incubating at 37°C for approximately 24 hours, a portion (1 µl) thereof was applied onto an agarose gel film (Universal Film, manufactured by Corning Co.) and then subjected to electrophoresis (Agarose Gel Electrophoresis System for Lipoprotein, manufactured by Corning Co.). Thus the mobility was measured by staining lipids with Fat Red 7B. […] After 3 days, peritoneal macrophages were collected from the mouse and incubated in an RPMI 1640 medium containing 10% of FBS. The macrophages were used in the • examination on the next day.

Compound | Formed TBARS (%) (Compound conc. 10^-5 M, 10 µM) | Formed TBARS (%) (Compound conc. 10^-6 M, 1 µM)
COc1cc(NCCc2ccccc2)cc(OC)c1OC [Compound 69] | 18 | 36
COc1cc(NCCCc2ccccc2)cc(OC)c1OC [Compound 70] | 18 | 25
COc1cc(NCCCCc2ccccc2)cc(OC)c1OC [Compound 71] | 7 | 20
COc1cc(NCCCc2ccc(CO)cc2)cc(OC)c1OC [Compound 75] | 16 | 38
CCCCC(Nc1cc(OC)c(OC)c(OC)c1)c1ccccc1 (stereo not drawn) [Compound 77, N-(1-phenylpentyl)-3,4,5-trimethoxyaniline] | 17 | 31
CCCCCCC(Nc1cc(OC)c(OC)c(OC)c1)c1ccccc1 (stereo not drawn) [Compound 78] | 14 | 29
CCCCCCCCC(Nc1cc(OC)c(OC)c(OC)c1)c1ccccc1 (stereo not drawn) [Compound 79] | 19 | 46
C=CCC(Nc1cc(OC)c(OC)c(OC)c1)c1ccccc1 (stereo not drawn) [Compound 80] | 17 | 33
COc1cc(NC(CC(C)C)c2ccccc2)cc(OC)c1OC (stereo not drawn) [Compound 81] | 15 | 25
COc1cc(NC(c2ccccc2)c2ccccc2)cc(OC)c1OC [Compound 82] | 15 | 34
COc1cc(NC(CCc2ccccc2)C(C)C)cc(OC)c1OC (stereo not drawn) [Compound 83] | 15 | 28
COc1cc(NCC=Cc2ccccc2)cc(OC)c1OC [Compound 85] | 20 | 64
COc1cc(N(CC=Cc2ccccc2)CC=Cc2ccccc2)cc(OC)c1OC [Compound 86] | 27 | 52
COc1cc(NC2CCCc3ccccc32)cc(OC)c1OC (stereo not drawn) [Compound 90] | 9 | 26
COc1cc(NCc2ccc[nH]2)cc(OC)c1OC [Compound 94] | 63 | 87
COc1cc(NCc2ccco2)cc(OC)c1OC [Compound 95] | 29 | 66
C=CCN(Cc1ccco1)c1cc(OC)c(OC)c(OC)c1 [Compound 96] | 43 | 67
COc1cc(NCc2cccs2)cc(OC)c1OC [Compound 97] | 24 | 44
COc1cc(NCc2ccccn2)cc(OC)c1OC [Compound 98] | 43 | 79
COc1cc(NCc2cccnc2)cc(OC)c1OC [Compound 99] | 47 | 79
COc1cc(NCc2nccn2CC=C(C)CCC=C(C)CCC=C(C)C)cc(OC)c1OC [Compound 100] | 13 | 81
COc1cc(NC2CCOc3ccccc32)cc(OC)c1OC (stereo not drawn) [Compound 101] | 18 | 41
COc1cc(NCC2CCCC2)cc(OC)c1OC [Compound 102] | 15 | 27
COc1cc(NCC2CCCCC2)cc(OC)c1OC [Compound 103] | 8 | 23
COc1cc(N(CC2CCCCC2)CC2CCCCC2)cc(OC)c1OC [Compound 104] | 23 | 31
COc1cc(NC(C)C2CCCCC2)cc(OC)c1OC (stereo not drawn) [Compound 105] | 8 | 22
CCCC(Nc1cc(OC)c(OC)c(OC)c1)C1CCCCC1 (stereo not drawn) [Compound 106] | 8 | 16
C=CCC(Nc1cc(OC)c(OC)c(OC)c1)C1CCCCC1 (stereo not drawn) [Compound 107] | 7 | 20
CCCCC(Nc1cc(OC)c(OC)c(OC)c1)C1CCCCC1 (stereo not drawn) [Compound 108] | 8 | 21
COc1cc(NC2CCCC3CCCCC32)cc(OC)c1OC (stereo not drawn) [Compound 109] | 10 | 20
